# According to patent publication US20090123389A1, “Methods for modulating Th17 cell development in the treatment and prevention of cellulite” (priority 2007, published 2009):
# Key:
# TGFβ signaling = TGFβ signaling in T and B cells (Smad phosphorylation, lymphocyte responses to TGFβ); type: cell-based, mouse; details: HF 10 nM (2.5-40 nM for Smad); SB-431542 10 μM
# Procedure: DMSO, 10 nM HF, 10 nM MAZ1310 or 10 μM SB-431542 was added as indicated at the time of activation and intracellular cytokine staining was performed on expanded T cells on day 5 as in FIG. 14B
# FIG. 15B is an illustration depicting the analysis of CD8^+ T cells that were activated in the presence or absence of TGFβ and cultured with DMSO, 10 nM HF, 10 nM MAZ1310 or 10 μM SB-431542. Expanded cells were restimulated on day 5 and intracellular staining was performed as above.
# FIG. 15C is an illustration depicting the analysis of CFSE-labeled B cells that were activated by LPS stimulation in the presence or absence of TGFβ plus DMSO, 10 nM HF, 10 nM MAZ1310 or 10 μM SB-431542. Intracellular IL-6 production in B cells re-stimulated with PMA plus ionomycin, or cell-surface IgA expression was determined 4 days after activation by FACS analyses.
# T cells were then activated in the presence or absence of 3 ng/ml TGFβ. Whole cell extracts were prepared after 1 hour of stimulation and western blot analyses were performed using the indicated antibodies.
# Western blotting: Whole cell lysates were generated from T cells activated for the indicated times. For STAT3 and Smad2/3 western blots cells were harvested, washed in PBS and lysed in 50 mM Tris, pH 7.4, 0.1% SDS, 1% Triton-×100, 140 mM NaCl, 1 mM EDTA, 1 mM EGTA supplemented with protease inhibitors tablets (Roche—Germany), 1 mM NaF and 1 mM Na3VO4. […]
# RORγt = RORγt expression (real-time PCR) and RORγt retroviral transduction; type: cell-based, mouse; details: 10 nM HF
# Procedure: T cells were harvested at the indicated times following activation, RNA was isolated and quantitative real-time PCR was performed using RORγt-specific primers and taqman probe. RORγt expression was normalized to Gapdh levels, and the data are presented as fold changes relative to naïve T cells.
# Infected T cells were expanded and restimulated on day 4 for intracellular staining. MIG- and MIG.RORγt-transduced cells were gated based on GFP fluorescence.
# FIG. 16C is a graph depicting the percent of Th17 cells (IL-17^+ IFNγ^−) in cultures of MIG-transduced (black bars) or MIG.RORγt-transduced (white bars) T cells as determined by intracellular cytokine staining were normalized to DMSO-treated cultures. The data are presented as mean values±SD on duplicate samples. […]
# Quantitative real-time PCR: T cells were activated as described above, collected at the indicated times and pellets were flash-frozen in liquid nitrogen. […] RORγt expression was determined after reverse transcription using the message sensor kit (Ambion, Austin, Tex.) per manufacturers instructions and taqman primers and probe as described elsewhere (I. Ivanov, et al., Cell 126, 1121, 2006). Sybrgreen quantitative real-time PCR was performed on T cell RNA samples following reverse transcription via SuperScript II first-strand cDNA synthesis kit (Invitrogen, Carlsbad, Calif.). […]
compound,measurement,setting,value
"O=C(CC1NCCCC1O)Cn1cnc2cc(Br)c(Cl)cc2c1=O (racemic) [HF, 7-bromo-6-chloro-3-[3-(3-hydroxy-2-piperidinyl)-2-oxopropyl]-4(3H)-quinazolinone]",TGFβ-induced Smad phosphorylation and other lymphocyte responses to TGFβ,TGFβ signaling,inhibited neither
same,upregulation of RORγt or RORγ during Th17 differentiation,RORγt,did not interfere
